Results reported in patent publication US10259799B2, “Hydroxyl pyranone compound, method for producing same, and cosmetics composition comprising compound” (AMOREPACIFIC CORPORATION, priority 2015, dated 2019).

System: human adipose tissue derived mesenchymal stem cells (hAT-MSCs)
Assay: Adipocyte differentiation promoting effect: adiponectin in culture medium by ELISA
Assay type: cell-based
Settings: for expression level of adiponectin (in words): hAT-MSCs with IDX, 14th day, comment on Table 1; for Adiponectin (pg/ml, Avg ± S.D.): medium collected on 14th day of differentiation
Experimental: In order to examine the adipocyte differentiation promoting effect of the compounds prepared in the Example, the following test was carried out.
Adiponectin is a typical protein hormone secreted from adipocytes. It has been reported that as adipocytes are differentiated, the expression of adiponectin is increased. Therefore, the adipocyte differentiation promoting effect was confirmed by measuring the amount of adiponectin expressed in the cell culture medium when treated with the novel compound of the present invention, which is an indicator of adipocyte differentiation promoting.
The adipocyte differentiation was performed by culturing human adipose tissue derived mesenchymal stem cells (hAT-MSCs) from Lonza Inc. (Walkersville, Md., USA) according to Lonza's guidelines. The adipocyte differentiation was carried out using the method recommended by Lonza Inc., except that the adipocyte differentiation of adipose-derived mesenchymal stem cells is induced by using troglitazone (TRO) instead of indomethacin. Specifically, the mesenchymal stem cells were differentiated into adipocytes by adding the medium for adipocyte differentiation (hereinafter referred to as IDX), which was prepared by mixing […] of insulin, […] of Dexamethasone (DEXA), 0.5 mM of isobutylmethylxanthine (IBMX) and […] of TRO, to the culture medium of mesenchymal stem cells, and then culturing it.
In order to determine the expression level of adiponectin, after the medium for adipocyte differentiation was collected on the 14th day of differentiation, the amount of adiponectin was quantified using the Adiponectin ELISA Kit (R & D systems, Cat. No. DY1065) (each data value was corrected by the control group). The specific measurement method using Adiponectin ELISA Kit was as follows.
First, the capture antibody was reacted in a 96-well plate, washed with washing buffer solution, and then the material shown in Table 1 below was added and reacted at room temperature for 2 hours. Thereafter, while washing three times every time when going through each step, the detection antibody, the HRP enzyme, the substrate solution, and the stop solution were added in order and reacted for the time indicated in the protocol. After the final reaction, the absorbance was measured at a wavelength of 450 nm using a spectrophotometer.

## O=c1cc(CO)occ1O [Kojic acid]
  expression level of adiponectin (in words): not increased

## O=C(/C=C/c1ccc2c(c1)OCO2)OCc1cc(=O)c(O)co1 [Seletinoid G]
  Adiponectin (pg/ml, Avg ± S.D.): 1505 ± 109 pg/mL

## CC1=C(/C=C/C(=O)OCc2cc(=O)c(O)co2)C(C)(C)CCC1 [compound of example, 3-(2,6,6-trimethyl-cyclohex-1-enyl)-propenoic acid 5-hydroxy-4-oxo-4H-pyran-2-ylmethyl ester]
  expression level of adiponectin (in words): increases almost similarly to that with Glibenclamide
  Adiponectin (pg/ml, Avg ± S.D.): 1804 ± 110 pg/mL
